In patent publication US6921777B2, “Heteroethynylenic compounds and pharmaceutical and cosmetic compositions containing them” (Galderma Research & Development, S.N.C., priority 1998, dated 2005):
pIC50: −log10 of the molar value.

Target: T1, RXRalpha (Homo sapiens, UniProt P19793)
T1 construct: expressed in transfected cells; host or cells: Cos7 monkey kidney cells
T1 sequence (P19793 1-462): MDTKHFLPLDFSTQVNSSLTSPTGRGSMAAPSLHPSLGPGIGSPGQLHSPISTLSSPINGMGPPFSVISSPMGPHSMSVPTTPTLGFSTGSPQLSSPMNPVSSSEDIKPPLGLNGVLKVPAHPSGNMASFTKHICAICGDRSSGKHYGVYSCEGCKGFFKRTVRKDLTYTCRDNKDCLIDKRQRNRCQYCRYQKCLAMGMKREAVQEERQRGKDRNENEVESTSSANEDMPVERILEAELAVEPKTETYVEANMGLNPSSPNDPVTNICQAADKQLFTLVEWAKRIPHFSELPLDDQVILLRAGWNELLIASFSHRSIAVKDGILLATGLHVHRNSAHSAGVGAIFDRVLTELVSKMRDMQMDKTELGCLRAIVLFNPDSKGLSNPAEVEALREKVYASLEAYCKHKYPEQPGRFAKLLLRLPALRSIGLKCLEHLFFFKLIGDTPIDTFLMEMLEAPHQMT
Experiment: RXR antagonist transactivation test (cotransfection pSG5-RXRalpha / CRBPII-tk-Luc, luciferase)
Type: cell-based
Settings: Cos7 cells; for inhibition at 1 µM: COS-7, test compound at 10^−6M final, 3 nM reference agonist, treatment 18 h, luciferase activity, read-out: % of inhibition of the induction obtained with the agonist alone; for pIC50: in the presence of 3 nM agonist 6-[1-(3,5,5,8,8-pentamethyl-5,6,7,8-tetrahydro-2-naphthalenyl)cyclopropyl]nicotinic acid, 5 concentrations 10^−5 to 10^−9 M, read-out: IC50 (dose required to achieve 50% inhibition of the agonist activity)
Text: a) Determination of the IC50 values of the antagonist compounds
The dose-response curve obtained makes it possible to determine the IC50 value which is specific to the compound.
b) Test of RXR Antagonist Transactivation
The properties of inhibition of the activation of the RXR response elements (RXRE) can be determined by recognized methods of the art.
The receptor expression plasmid pSG5-RXRalpha and the reporter plasmid CRBPII-tk-Luc are introduced into the Cos7 monkey kidney cell line by the method of coprecipitation with calcium phosphate described in Molecular Cloning: A laboratory manual (Sambrook et al. eds. Cold Spring Harbor Lab. Publ. 1989). […] The test compound is added at 10^−6M final. After treatment for 18 h, the cells are rinsed with PBS and lysed in 0.1M KPO4 (pH 7.8), 1.0% Triton X100, 1.0 mM DTT, 1 mM EDTA. The luciferase activity of the cell lysatesis measured as described by deWet et al. in Mol. Cell. Biol. 7:725 (1987).

inhibition at 1 µM [%] | pIC50 | SMILES
61 | 6.33 | COCOc1cc([Se]C#CC(C)=CC(=O)O)cc2c1C(C)(C)CCC2(C)C [EXAMPLE 14, 5-(4-Methoxymethoxy-5,5,8,8-tetramethyl-5,6,7,8-tetrahydronaphthalen-2-ylselenyl)-3-methylpent-2-en-4-ynoic Acid]
57 | 6.17 | CCCOc1cc2c(cc1[Se]C#CC(C)=CC(=O)O)C(C)(C)CCC2(C)C [EXAMPLE 10, 3-Methyl-5-(5,5,8,8-tetramethyl-3-propoxy-5,6,7,8-tetrahydronaphthalen-2-ylselenyl)pent-2-en-4-ynoic Acid]
92 | 7.15 | CCCOc1cc([Se]C#CC(C)=CC(=O)O)cc2c1C(C)(C)CCC2(C)C [EXAMPLE 12, 3-Methyl-5-(5,5,8,8-tetramethyl-4-propoxy-5,6,7,8-tetrahydronaphthalen-2-ylselenyl)pent-2-en-4-ynoic Acid]
